Experimental data reported in patent publication US20090320166A1, “Synergistic Insecticide And Fungicidal Mixtures” (BAYER CROPSCIENCE AG, priority 2006, published 2009).

How the values were obtained:
Myzus persicae = Myzus persicae test (cabbage leaf dip); format: in vivo; conditions: 200 ppm
Source text: Solvent: 7 parts by weight of dimethylformamide

Phaedon cochleariae = Phaedon cochleariae larvae test (cabbage leaf dip); conditions: Table B1, 200 ppm, mustard beetle larvae on cabbage leaves

Cn1cc(C(=O)Nc2ccccc2C2CC2C2CC2)c(C(F)F)n1 (stereo not drawn) [compound (I-4)]
0%: Kill in % after 1d (Myzus persicae; Table A1, green peach aphid on cabbage leaves, after 1 d) | Kill in % after 6d (Myzus persicae; Table A2, after 6 d) | Kill in % after 6d (Phaedon cochleariae)
